In US20130001162A1, “Apparatus, System, and Method for Forward Osmosis in Water Reuse” (priority 2011, published 2013):

How the values were obtained:
[1] = Rejection of micropollutants by low pressure reverse osmosis (LPRO), diluted DS as feed; conditions: permeate of LPRO at 15 bar
[2] = stated with the literature report; cited from earlier work

Structure (SMILES) | concentration, Permeate LPRO [1] [ng/mL] | log D [2]
CC(=O)Nc1ccc(O)cc1 [Acetaminophen] | 0.31 | 
C#C[C@]1(O)CC[C@H]2[C@@H]3CCc4cc(O)ccc4[C@H]3CC[C@@]21C [17α-ethynilestradiol] | <0.001 | 
C1COCCO1 [1,4-dioxane] | <0.5 | 
Cc1ncc([N+](=O)[O-])n1CCO [Metronidazole] | 0.08 | 
CC(C)(c1ccc(O)cc1)c1ccc(O)cc1 [Bisphenol A] | 0.058 | 
CC(C(=O)O)c1cccc(C(=O)c2ccccc2)c1 (stereo not drawn) [Ketoprofen] | <0.01 | 
C[C@]12CC[C@@H]3c4ccc(O)cc4CC[C@H]3[C@@H]1CC[C@@H]2O [estradiol] |  | 3.94
C[C@]12CC[C@@H]3c4ccc(O)cc4CC[C@H]3[C@@H]1CCC2=O [estrone] |  | 3.46
NC(=O)N1c2ccccc2C=Cc2ccccc21 [Carbamazepine] | 0.02 | 
Cc1ccc(C)c(OCCCC(C)(C)C(=O)O)c1 [Gemfibrozil] | <0.01 | 
CC(C(=O)O)c1cccc(Oc2ccccc2)c1 (stereo not drawn) [Fenoprofen] | <0.01 | 
Cn1c(=O)c2c(ncn2C)n(C)c1=O [Caffeine] | 0.03 | 
